Experimental data taken from publication PMC7048748, “Anxiolytic Drug FGIN-1-27 Ameliorates Autoimmunity by Metabolic Reprogramming of Pathogenic Th17 Cells” (Scientific Reports, 2020).

Key:
Format in all cases: cell-based, mouse
[1] = system: STAT3; test: Phospho Stat3 staining after IL-6 re-stimulation; conditions: re-stimulation with IL-6
Method: (§1) The following day, cells were treated with either DMSO or of FGIN-1-27 (10 μM). For phospho-ZAP70 analyses, cells were stained after 24 hours of treatment using 10 μg/ml of biotinylated anti-CD3 (145-2C11, BD Biosciences) and anti-CD28 (37.51, BD Biosciences) antibodies on ice for 15 minutes, washed, and stimulated in presence of 20 μg/ml of Streptavidin for 10 minutes at 37 degrees. Cells were then fixed in 2% PFA, permeabilized in Methanol/Acetone and stained with anti-phospho ZAP70 antibody (n3kobu5, eBioscience) and anti-CD4 (RM4-5, eBioscience). For phospho-STAT3 analyses, cells were cultured for additional 24 hours in IL-6 free media, before stimulation with 100 ng/ml of mIL-6 for 30 minutes. Cells were then fixed in 2% PFA, permeabilized in Methanol/Acetone and stained with anti-phospho-STAT3 antibody (4/P-STAT3, BD Biosciences) and anti-CD4. Dead cells were excluded using Live/Dead […] (Thermo Fisher) staining prior to stimulation. page 3: Supplementary Figur es Fig S1 (a) Genomic browser screenshot of Tspo depicting normalized RNA-seq read coverage (RPM) in different T cell subsets. Data were downloaded from NCBI GEO (accession number GSE40918) and processed as in Figure 4A. […] (g) Transcript levels for S ta t3 after 24 hours of treatment with DMSO or FGIN-1-27 quantified by qPCR. […]

[2] = system: ZAP70; test: Phospho ZAP70 staining after anti-CD3/CD28 stimulation; conditions: 10 μM, 24 hours
Method: as §1

[3] = system: Th17 cells; test: Cholesterol panel (sterols) in Th17 cells; conditions: 72 hours; for 7-DHC / 7-HC / -SITO / CAMP / CHOL / COPR / CSTN: Cholestanol / DESM / LANO / LATH / SQUA / STIG / ZYMO: Cell
Method: Specific cholesterol precursors like desmosterol and oxysterols, such as 7β, 27-dihydroxycholesterol (7β, 27-OHC), have been identified as ligands for RORγt[21],[22] and shown to modulate Th17 differentiation. […] Next, we extended our studies to lipid metabolites and profiled the lipidome of Th17 cells treated with DMSO or FGIN-1-27. […]
(a) Indicated sterols were measured in Th17 cells treated with DMSO or FGIN-1-27 for
(1 picture or pasted object on this page, not shown here)

CCCCCCN(CCCCCC)C(=O)Cc1c(-c2ccc(F)cc2)[nH]c2ccccc12 [FGIN-1-27, N, N-di-n-hexyl 2-(4-fluorophenyl) indole-3-acetamide]
phosphorylation of STAT3 [1]: did not show a defect
phosphorylation of ZAP70 [2]: did not phosphorylate ZAP70
levels of cholesterol, its precursors and oxysterols ([3]; vs DMSO): comparable
7-DHC [3]: 21.45 nMoles/billion
7-HC [3]: 0.68 nMoles/billion
-SITO [3]: 1.81 nMoles/billion
CAMP [3]: 4.37 nMoles/billion
CHOL [3]: 1426.96 nMoles/billion
COPR [3]: 0.37 nMoles/billion
CSTN: Cholestanol [3]: 2.54 nMoles/billion
DESM [3]: 26.06 nMoles/billion
LANO [3]: 0.57 nMoles/billion
LATH [3]: 10.58 nMoles/billion
SQUA [3]: 13.58 nMoles/billion
STIG [3]: 0.09 nMoles/billion
ZYMO [3]: 0.37 nMoles/billion
7-DHC ([3]; listed as FGIN2): 29.74 nMoles/billion
7-HC ([3]; listed as FGIN2): 1.01 nMoles/billion
-SITO ([3]; listed as FGIN2): 66.45 nMoles/billion
CAMP ([3]; listed as FGIN2): 6.00 nMoles/billion
CHOL ([3]; listed as FGIN2): 1968.79 nMoles/billion
COPR ([3]; listed as FGIN2): 0.04 nMoles/billion
CSTN: Cholestanol ([3]; listed as FGIN2): 5.53 nMoles/billion
DESM ([3]; listed as FGIN2): 47.55 nMoles/billion
LANO ([3]; listed as FGIN2): 0.96 nMoles/billion
LATH ([3]; listed as FGIN2): 13.90 nMoles/billion
SQUA ([3]; listed as FGIN2): 16.54 nMoles/billion
STIG ([3]; listed as FGIN2): 8.18 nMoles/billion
ZYMO ([3]; listed as FGIN2): 0.44 nMoles/billion
7-DHC ([3]; listed as FGIN3): 22.18 nMoles/billion
7-HC ([3]; listed as FGIN3): 1.04 nMoles/billion
-SITO ([3]; listed as FGIN3): 2.54 nMoles/billion
CAMP ([3]; listed as FGIN3): 7.76 nMoles/billion
CHOL ([3]; listed as FGIN3): 2113.85 nMoles/billion
COPR ([3]; listed as FGIN3): 0.0757 nMoles/billion
CSTN: Cholestanol ([3]; listed as FGIN3): 4.07 nMoles/billion
DESM ([3]; listed as FGIN3): 37.52 nMoles/billion
LANO ([3]; listed as FGIN3): 0.93 nMoles/billion
LATH ([3]; listed as FGIN3): 15.86 nMoles/billion
SQUA ([3]; listed as FGIN3): 17.48 nMoles/billion
STIG ([3]; listed as FGIN3): 0.73 nMoles/billion
ZYMO ([3]; listed as FGIN3): 0.68 nMoles/billion
7-DHC ([3]; listed as FGIN4): 17.23 nMoles/billion
7-HC ([3]; listed as FGIN4): 0.75 nMoles/billion
-SITO ([3]; listed as FGIN4): 1.38 nMoles/billion
CAMP ([3]; listed as FGIN4): 4.69 nMoles/billion
CHOL ([3]; listed as FGIN4): 1456.01 nMoles/billion
COPR ([3]; listed as FGIN4): 0.06 nMoles/billion
CSTN: Cholestanol ([3]; listed as FGIN4): 2.93 nMoles/billion
DESM ([3]; listed as FGIN4): 26.10 nMoles/billion
LANO ([3]; listed as FGIN4): 0.61 nMoles/billion
LATH ([3]; listed as FGIN4): 10.88 nMoles/billion
SQUA ([3]; listed as FGIN4): 2.92 nMoles/billion
STIG ([3]; listed as FGIN4): 0.05 nMoles/billion
ZYMO ([3]; listed as FGIN4): 0.40 nMoles/billion
